Test results as given in US10653749B2, “Targeting GIV-GEF-GI signaling for treating diverse diseases” (The Regents of the University of California, priority 2015, dated 2020).
“Also recorded” adds a separate entry of the source.

B1: His-GIV-CT: Recombinant His-tagged GIV-CT (aa 1660-1870) expressed from pET28b (protein)
chain: ETLESRHHKIKTGSPGSEVVTLQQFLEESNKLTSVQIKSSSQENLLDEVMKSLSVSSDFLGKDKPVSCGLARSVSGKTPGDFYDRRTTKPEFLRPGPRKTEDTYFISSAGKPTPGTQGKIKLVKESSLSRQSKDSNPYATLPRASSVISTAEGTTRRTSIHDFLTKDSRLPISVDSPPAAADSNTTAASNVDKVQESRNSKSRSREQQSS
modifications: left off: small tags and cut ends
notes: Recombinant His-tagged GIV-CT (aa 1660-1870) expressed from pET28b

What was measured:
[1] = system: GIV, IRS1 and Akt phosphorylation; test: Metabolic insulin signaling in L6 cells by immunoblotting; assay type: cell-based, rat
Procedure: (§1) Transfection was carried out with GeneJuice (Novagen) for DNA plasmids or Oligofectamine (Invitrogen) for siRNA oligos according to manufacturer's protocols. Silencer negative Control scrambled (Scr) siRNA used as control was purchased from Ambion and the previously validated (Enomoto et al., 2005) GIV siRNA sequence used was custom-ordered from Dharmacon. For TAT-construct transduction, cells were incubated with 300-800 nM of the TAT-proteins for 30 min at 37° C. prior to three washes with PBS and addition of fresh growth media. For assays involving insulin (Novagen) stimulation of TAT-treated cells, such stimulation was carried out 90 min after transduction.
(§2) Unless otherwise indicated, serum starvation of cells for use in experiments involving insulin stimulation was carried out by growing cells overnight in the presence of no serum (i.e., 0% FBS) in the case of Cos7 and L6 cells, or in the presence of 0.2% FBS in the case of HeLa cells. To induce IR, cells were pre-treated with Sodium Palmitate (PA; Sigma-Aldrich) (0.5 mM, stock solution at 5 mM/5% FFA-free BSA in ethanol) or vehicle control (5% FFA-free BSA in ethanol) for 16 h. To reverse IR with TZDs, cells were treated with 50 μM Pioglitazone (Pio) (Sigma-Aldrich) or DMSO (vehicle control) for 18 h prior to stimulation with 100 nM insulin. Treatment with PKCθ pseudo-substrate inhibitor (Santa Cruz Biotechnologies) was performed at 10 μM for 16 h.
Protein samples for immunoblotting were run on SDS/PAGE gels and transferred onto PVDF membranes (Millipore). Membranes were blocked with PBS containing 5% non-fat milk (or with 5% BSA when probing for phosphorylated proteins) before incubation with primary antibodies. GIV was detected using rabbit anti-GIV coiled-coil (Millipore) (1:500); GIV-CT (Santa Cruz Biotechnologies) (1:500); phospho-Tyr1764-GIV (1:500) and phospho-Ser1689-GIV (21st Century Biochemicals) (1:250) antibodies. Other antibodies used in this work include rabbit polyclonal antibodies against Gαi3 (1:333), pan-GP (1:250) and phospho-IRS1 (1:500) from Santa Cruz Biotechnologies; and phospho-Akt (1:250); total Akt (1:250); phospho-ERK (1:250); phospho-AS160 (1:250); total InsRβ (1:500) and total IRS1 (1:500) from Cell signaling. Mouse monoclonal Abs against phospho-InsRβ (1:250), His (1:1000), β-tubulin (1:1000), GFP (1:500) from Santa Cruz Biotechnologies, and control IgG (Bio-Rad Laboratories) were commercially obtained. Goat anti-rabbit and goat anti-mouse Alexa Fluor 680 or IRDye 800 F(ab′)2 secondary antibodies were purchased from Li-Cor Biosciences. Images were processed with ImageJ software (NIH) and assembled as figure panels using Photoshop and Illustrator software (Adobe).

L6 myotubes = test: Fluorometric 2-deoxyglucose uptake assay after insulin stimulation; assay type: cell-based, rat
Procedure: as §1, §2
Glucose uptake assays were performed without the use of radioisotopes as described previously (Yamamoto et al., 2006). HeLa and L6 cells grown in 6-well plates were stimulated with insulin in KRH Buffer [50 mM HEPES, 137 mM NaCl, 4.7 mM KCl, 1.85 mM CaCl2, 1.3 mM MgSO4, and 0.1% (w/v) BSA-FFA free, pH 7.4]. Cells were incubated with 1 mM 2-deoxyglucose (2-DG) for 20 min, washed, and subsequently lysed with 0.1 N NaOH. The lysates were transferred into eppendorf tubes and samples were incubated in a water bath maintained at 80° C. for 45 min to degrade endogenous NAD(P)H and NAD(P)^+. An equal volume each of 0.1 N HCl and Triethanolamine (200 mM TEA, pH 8.1) buffer were added to each tube. Samples were subsequently mixed with assay solution [50 mM TEA, 0.02% BSA-FFA free, 10 μM NAD(P)^+, 0.2 U/ml Diaphorase, 6 nM Resazurin sodium, 15 U/ml G6PDH (Santa Cruz Biotechnologies)] and incubated at 37° C. for 90 min. Fluorescence intensity (λex=550 nM, λem=590 nM) was determined using a Tecan Inifinite M1000 PRO and normalized to total protein, as determined using BCA assay (Thermo Scientific).

[2] = system: GIV binding to GST-Gαi3 [preloaded with GDP]; test: GST-Gαi3 pulldown of GIV from lysates of PA-treated L6 myoblasts; details: L6 treated with PA 0.5 mM, 16 h
Procedure: (§3) Purified GST-Gαi3, GST-tagged IRS1 domains or GST alone were immobilized on glutathione-Sepharose beads (GE Healthcare) for 1 h at room temperature as described before (Garcia-Marcos et al., 2012; Ghosh et al., 2010; Ghosh et al., 2008; Lin et al., 2011). L6 lysates or His-GIV CT protein were added to each tube, and binding reactions were carried out for 4 h at 4° C. with constant tumbling in binding buffer [50 mM Tris-HCl (pH 7.4), 100 mM NaCl, 0.4% (v:v) Nonidet P-40, 10 mM MgCl2, 5 mM EDTA, 2 mM DTT, protease inhibitor mixture]. Beads were washed (4×) with 1 mL of wash buffer [4.3 mM Na2HPO4, 1.4 mM KH2PO4 (pH 7.4), 137 mM NaCl, 2.7 mM KCl, 0.1% (v:v) Tween 20, 10 mM MgCl2, 5 mM EDTA, 2 mM DTT] and bound complexes were eluted by boiling in Laemmli's sample buffer. When GST-Gαi3 was used in the assay, both binding buffer and washing buffer were supplemented with 30 μM GDP and bound proteins were eluted by incubating at 37° C.

[3] = target: T1, GST-tagged domains of IRS1 (Rattus norvegicus, UniProt P35570); test: Pulldown of recombinant His-GIV-CT with GST-tagged IRS1 domains; assay type: binding; details: recombinant proteins
T1 construct: GST-tagged IRS1 domains (N: aa 2-516, M: aa 526-859 and C: 900-1235); made in house
T1 sequence (P35570 2-516): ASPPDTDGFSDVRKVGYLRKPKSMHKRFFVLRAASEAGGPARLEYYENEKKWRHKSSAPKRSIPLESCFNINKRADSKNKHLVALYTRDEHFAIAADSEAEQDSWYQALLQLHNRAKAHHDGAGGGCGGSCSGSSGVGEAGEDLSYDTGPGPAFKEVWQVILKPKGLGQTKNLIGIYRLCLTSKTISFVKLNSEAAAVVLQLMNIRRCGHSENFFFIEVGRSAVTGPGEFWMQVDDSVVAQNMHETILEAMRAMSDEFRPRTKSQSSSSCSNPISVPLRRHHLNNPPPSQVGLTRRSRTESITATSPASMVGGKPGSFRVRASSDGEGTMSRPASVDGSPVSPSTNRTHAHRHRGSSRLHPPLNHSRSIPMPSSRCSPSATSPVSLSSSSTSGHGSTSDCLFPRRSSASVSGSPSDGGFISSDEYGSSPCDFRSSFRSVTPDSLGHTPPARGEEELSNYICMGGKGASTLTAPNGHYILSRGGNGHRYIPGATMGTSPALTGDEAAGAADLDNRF
Procedure: as §3

Molecule | phosphorylation of GIV at Y1764 ([1]; L6 cells treated with PA) | phosphorylation of GIV at S1689 ([1]; L6 cells treated with PA (0.5 mM, 16 h)) | induction of IR (glucose-uptake response to insulin) (L6 myotubes; L6-GIV-SA cells (S1689A)) | induction of IR (glucose-uptake response to insulin) (L6 myotubes; L6-GIV-WT cells) | GIV's ability to bind Gi (Gαi3) [2] | binding to IRS1 domains [3]
CCCCCCCCCCCCCCCC(=O)[O-].[Na+] [PA, Sodium Palmitate, reference compound] | suppressed | enhanced | resistant to PA | induced IR | reduced; also recorded: loss of binding | –
B1 | – | – | – | – | – | specifically bound the N-terminus of IRS1
